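Interpolation was linear, between the two tested concentrations surrounding the appropriate level; five concentrations were tested over 48 hours in 96-well plates. The concentration for 50% growth inhibition is given as GI50. TGI denotes the concentration required for complete inhibition of growth.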
Experiments:
Assay in all cases: NCI anticancer screen, dose series, 48 h
COLO 205 colon = test system: COLO 205 colon
DLD-1 colon = test system: DLD-1 colon
KM20L2 colon = test system: KM20L2 colon
M19-MEL melanoma = test system: M19-MEL melanoma
RPMI-8226 leukemia = test system: RPMI-8226 leukemia
SNB-75 CNS = test system: SNB-75 CNS
SNB-78 CNS = test system: SNB-78 CNS
DMS 273 small cell lung = test system: DMS 273 small cell lung
LOX IMVI melanoma = test system: LOX IMVI melanoma
MDA-N = test system: MDA-N
NCI-H226 lung = test system: NCI-H226 lung
NCI/ADR-RES ovarian = test system: NCI/ADR-RES ovarian
T-47D breast = test system: T-47D breast
XF 498 CNS = test system: XF 498 CNS
HOP-18 NSCLC = test system: HOP-18 NSCLC

| SMILES | TGI (COLO 205 colon) [µM] | TGI (DLD-1 colon) [µM] | TGI (KM20L2 colon) [µM] | TGI (M19-MEL melanoma) [µM] | TGI (RPMI-8226 leukemia) [µM] | TGI (SNB-75 CNS) [µM] | TGI (SNB-78 CNS) [µM] | GI50 (DLD-1 colon) [µM] | GI50 (DMS 273 small cell lung) [µM] | TGI (DMS 273 small cell lung) [µM] | TGI (LOX IMVI melanoma) [µM] | GI50 (M19-MEL melanoma) [µM] | TGI (MDA-N) [µM] | TGI (NCI-H226 lung) [µM] | TGI (NCI/ADR-RES ovarian) [µM] | GI50 (SNB-78 CNS) [µM] | TGI (T-47D breast) [µM] | GI50 (XF 498 CNS) [µM] | TGI (XF 498 CNS) [µM] | TGI (HOP-18 NSCLC) [µM] |
| --- | --- | --- | --- | --- | --- | --- | --- | --- | --- | --- | --- | --- | --- | --- | --- | --- | --- | --- | --- | --- |
| Cc1ccc(/C=C/C(=O)C(C)C)cc1 | > 100 | > 100 | > 100 | > 100 | 72.7 | > 100 | > 100 | – | – | – | – | – | – | – | – | – | – | – | – | – |
| O=S(=O)(O)c1cc(N=Nc2cc(S(=O)(=O)O)c3ccccc3c2O)ccc1/C=C/c1ccc(N=Nc2cc(S(=O)(=O)O)c3ccccc3c2O)cc1S(=O)(=O)O | > 380 | > 1000 | – | > 1000 | > 311 | > 736 | > 1000 | > 1000 | > 1000 | > 1000 | > 461 | > 1000 | 359 | 594 | > 1000 | > 1000 | > 1000 | > 1000 | > 1000 | – |
| Nc1ccc(C(=O)NN2C(=O)C(Cl)C2c2cc(Br)cc(Br)c2O)cc1 (configuration not stated) | > 100 | > 100 | > 100 | 48.3 | > 100 | > 100 | > 100 | – | – | > 100 | 33.8 | – | – | 45.8 | – | – | – | – | > 100 | 38.2 |
| O=[N+]([O-])c1cc2c(cc1O)[nH]c1cccc([N+](=O)[O-])c12 | > 100 | > 100 | – | > 100 | > 100 | > 100 | > 100 | – | – | > 100 | > 100 | – | – | > 100 | – | – | – | – | > 100 | > 100 |
| COc1cc(C(C#N)NNC(=O)Cc2ccccc2)cc(OC)c1OC (configuration not stated) | > 100 | > 100 | > 100 | > 100 | > 100 | > 100 | > 100 | – | – | > 100 | > 100 | – | – | > 100 | – | – | – | – | – | > 100 |
| C=C(CN(C)C)C(=O)c1ccc(C)cc1C | 11.3 | 14.2 | 39 | 43.1 | > 100 | 34.9 | 60.4 | – | – | 44.2 | 15.2 | – | 14.3 | 34.5 | 40.3 | – | 18.6 | – | 27.6 | 30.3 |
| CC(OC1CC(=O)CC2C(=O)C=CC(=O)C12)c1ccccc1 (configuration not stated) | 32 | 26.7 | 31 | 29.8 | 58.5 | > 57.7 | 36.3 | – | – | 33.8 | 33.3 | – | – | 36.5 | – | – | – | – | 29.4 | 32.2 |
| COc1ccc([C@@H]2CC(=O)NCCCNCCCCNCCCN2)cc1 | > 100 | > 100 | > 100 | > 100 | > 100 | > 100 | > 100 | – | – | > 100 | – | – | – | > 100 | – | – | – | – | > 100 | > 100 |

Reference: PubChem BioAssay (NCI)
